According to patent publication US11814364B2, “Pyridine N-oxide derivatives useful as factor XIa inhibitors” (Janssen Pharmaceutica NV, priority 2021, dated 2023):

What follows are compounds tested against human plasma kallikrein (Homo sapiens, UniProt P03952) (assay: Kallikrein inhibition FLINT assay with quenched AMC peptide substrate Z-Gly-Pro-Arg-AMC (end point EP or kinetic KIN reads)). Conditions: kinetic reads at 5 min intervals over 30 min; read-out: Kallikrein (KIN) IC50.
Assay type: biochemical
Method in brief: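 Enzyme and compound were preincubated 30 min before adding 50 μM AMC substrate in pH 7.5 Tris/NaCl/CaCl2/BSA/CHAPS buffer. AMC release was read at 30 min endpoint or every 5 min.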

Sequence of human plasma kallikrein (P03952 391-638 limits assumed): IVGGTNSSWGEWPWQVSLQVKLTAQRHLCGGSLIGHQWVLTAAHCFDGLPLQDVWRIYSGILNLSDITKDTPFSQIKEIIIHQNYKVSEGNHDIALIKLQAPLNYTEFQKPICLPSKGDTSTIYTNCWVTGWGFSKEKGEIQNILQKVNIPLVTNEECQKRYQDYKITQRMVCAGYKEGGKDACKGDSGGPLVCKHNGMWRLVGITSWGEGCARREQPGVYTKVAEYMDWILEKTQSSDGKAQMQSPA
Sequence of human plasma kallikrein (P03952 20-390 partner limits assumed): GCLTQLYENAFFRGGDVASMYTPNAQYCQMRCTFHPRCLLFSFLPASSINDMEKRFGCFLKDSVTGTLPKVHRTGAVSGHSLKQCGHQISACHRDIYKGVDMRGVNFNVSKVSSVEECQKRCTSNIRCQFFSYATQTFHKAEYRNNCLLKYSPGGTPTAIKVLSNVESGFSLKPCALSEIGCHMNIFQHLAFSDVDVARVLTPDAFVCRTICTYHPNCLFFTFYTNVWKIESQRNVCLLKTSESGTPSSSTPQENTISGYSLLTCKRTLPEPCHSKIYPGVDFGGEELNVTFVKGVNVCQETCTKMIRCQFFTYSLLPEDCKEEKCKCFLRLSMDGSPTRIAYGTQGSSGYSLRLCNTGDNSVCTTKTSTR

Compound | IC50 [nM]
NC(=O)c1ccc(-c2cnn(C(Cc3ccn(C(F)F)n3)c3ccc(-c4c(-n5cnnn5)ccc(Cl)c4F)c[n+]3[O-])c2)cc1F (single isomer, unassigned) [Example P933] | 0.4
O=C(O)c1ccc(-c2cnn(C(Cc3ccccc3)c3ccc(-c4c(OCC(F)(F)F)ccc(Cl)c4F)c[n+]3[O-])c2)cc1 (stereo not shown) [Example Q4] | 265
[O-][n+]1cc(-c2c(-n3cnnn3)ccc(Cl)c2F)ccc1[C@@H](CCOC(F)F)n1cc(-c2nn(C(F)F)cc2Cl)cn1 [Example P572] | 24.1
[O-][n+]1ccc(-c2cnn(C(Cn3cccn3)c3ccc(-c4c(-n5cnnn5)ccc(Cl)c4F)c[n+]3[O-])c2)nc1 (stereo not shown) [Example P320] | 128
CN(CC(c1ccc(-c2c(-n3cnnn3)ccc(Cl)c2F)c[n+]1[O-])n1cc(-c2ccnc(C(F)(F)F)c2)cn1)C(=O)c1ccccc1 (single isomer, unassigned) [Example P409] | 32.3
COC(=O)Nc1ccc(-c2cnn(C(CC3CCC3)c3ccc(-c4c(-n5cnnn5)ccc(Cl)c4F)c[n+]3[O-])c2)cc1 (stereo not shown) [Example P109] | 45.7
[O-][n+]1cc(-c2cc(Cl)ccc2-n2cnnn2)ccc1C(Cn1cc(C(F)(F)F)cn1)n1cc(-c2ccnc(F)c2)cn1 (stereo not shown) [Example P321] | 94.9
NC(=O)c1ccc(-c2cnn(C(Cc3ccn(C(F)F)n3)c3ccc(-c4c(-n5cc(C(F)(F)F)nn5)ccc(Cl)c4F)c[n+]3[O-])c2)cc1F (single isomer, unassigned) [Example P891] | 536
COCC[C@H](c1ccc(-c2c(-n3cc(OC(F)F)nn3)ccc(Cl)c2F)c[n+]1[O-])n1cc(-c2cnnn2C)cn1 [Example P616] | 205
[2H]C([2H])(C[C@@H](c1ccc(-c2c(-n3cnnn3)ccc(Cl)c2F)c[n+]1[O-])n1cc(-c2cn(C)nc2Cl)cn1)OC(F)F [Example P849] | 417
NC(=O)Cc1ccn(CC(c2ccc(-c3c(-n4cnnn4)ccc(Cl)c3F)c[n+]2[O-])n2cc(-c3ccnc(C(F)(F)F)c3)cn2)n1 (stereo not shown) [Example P486] | 10.2
[O-][n+]1cc(-c2c(-n3cnnn3)ccc(Cl)c2F)ccc1C(Cn1cc(F)cn1)n1cc(-c2ccnc(C(F)(F)F)c2)cn1 (stereo not shown) [Example P332] | 59.5
COc1ccc(CC(c2ccc(-c3c(-n4cnnn4)ccc(Cl)c3F)c[n+]2[O-])n2cc(-c3ccc(C(=O)NC4CC4)cc3)cn2)cc1 (stereo not shown) [Example P135] | 10.8
[2H]C([2H])([2H])n1nccc1-c1cnn([C@@H](CCOC(F)F)c2ccc(-c3c(-n4cnnn4)ccc(Cl)c3F)c[n+]2[O-])c1 [Example P557] | 210
O=C1OCCN1CC(c1ccc(-c2c(-n3cnnn3)ccc(Cl)c2F)c[n+]1[O-])n1cc(-c2ccnc(C(F)(F)F)c2)cn1 (single isomer, unassigned) [Example P430] | 38
Nc1ccc(-c2cnn(C(Cn3cc(F)cn3)c3ccc(-c4c(C(F)F)ccc(Cl)c4F)c[n+]3[O-])c2)c(F)n1 (single isomer, unassigned) [Example Q26] | 420
N#Cc1cc(-c2cnn(C(Cn3cc(F)cn3)c3ccc(-c4c(-n5cnnn5)ccc(Cl)c4F)c[n+]3[O-])c2)ccn1 (single isomer, unassigned) [Example P453] | 132
CC(C)n1nncc1-c1cnn(C(CCOC(F)F)c2ccc(-c3c(-n4cc(C(F)(F)F)nn4)ccc(Cl)c3F)c[n+]2[O-])c1 (stereo not shown) [Example P803] | ~93
COC(=O)N(C)CC(c1ccc(-c2c(-n3cnnn3)ccc(Cl)c2F)c[n+]1[O-])n1cc(-c2ccncc2)cn1 (stereo not shown) [Example P303] | 32.7
O=C(O)c1ccc(-c2cnn(C(Cc3ccc(Oc4ccccc4)cc3)c3ccc(-c4cc(Cl)ccc4-n4cnnn4)c[n+]3[O-])c2)cc1 (stereo not shown) [Example P147] | 12.2

Compound | IC50 [nM]
Cn1ncc(-c2cnn(C(CC3CC3)c3cc(Cl)c(-c4c(-n5cnnn5)ccc(Cl)c4F)c[n+]3[O-])c2)cc1=O (single isomer, unassigned) [Example P190] | 49.2
[O-][n+]1cc(-c2c(-n3cnnn3)ccc(Cl)c2F)ccc1C(Cc1ccc(C(F)(F)F)nc1)n1cc(-c2ccnn2C(F)F)cn1 (stereo not shown) [Example P753] | 54.3
NC(=O)c1ccc(-c2cnn(C(CCOC(F)F)c3ccc(-c4c(-n5cnnn5)ccc(Cl)c4F)c[n+]3[O-])c2)cc1F (single isomer, unassigned) [Example P929] | 5.8
Nc1ccc(-c2cnn(C(Cn3cccn3)c3ccc(-c4c(-n5cnnn5)ccc(Cl)c4F)c[n+]3[O-])c2)c(F)n1 (stereo not shown) [Example P256] | 3
CC(C)n1ccc(C[C@@H](c2ccc(-c3c(-n4cnnn4)ccc(Cl)c3F)c[n+]2[O-])n2cc(-c3ccnc(C(F)(F)F)c3)cn2)n1 [Example P651] | 307
Cn1cncc1-c1cnn(C(CC2CC2)c2ccc(-c3c(-n4cnnn4)ccc(Cl)c3F)c[n+]2[O-])c1 (stereo not shown) [Example P495] | 211
COc1cc(C(CC2CC2)n2cc(-c3ncnn3C)cn2)[n+]([O-])cc1-c1cc(Cl)ccc1-n1cc(C(F)(F)F)nn1 (single isomer, unassigned) [Example P918] | 29.5
NC(=O)COc1ccc(CC(c2ccc(-c3cc(Cl)ccc3-n3cnnn3)c[n+]2[O-])n2cc(-c3ccc(C(=O)O)cc3)cn2)cc1 (stereo not shown) [Example P138] | 4.1
[O-][n+]1cc(-c2c(-n3cnnn3)ccc(Cl)c2F)ccc1C(Cn1cc(F)cn1)n1cc(-c2ccnc(C(F)(F)F)c2)cn1 (stereo not shown) [Example P275] | 19.1
COc1cc(C(CC2CC2)n2cc(-c3ccnn3C)cn2)[n+]([O-])cc1-c1c(-n2cnnn2)ccc(Cl)c1F (single isomer, unassigned) [Example P490] | 16.3
[O-][n+]1cc(-c2c(-n3cnnn3)ccc(Cl)c2F)ccc1C(Cn1cc(-c2ccccn2)cn1)n1cc(-c2ccccn2)cn1 (single isomer, unassigned) [Example P516] | 139
O=C(C1CC1CC(c1ccc(-c2c(-n3cnnn3)ccc(Cl)c2F)c[n+]1[O-])n1cc(-c2ccncc2)cn1)N1CCC(c2ccccc2)C1 (stereo not shown) [Example P253] | 159
O=C(O)c1ccc(-c2cnn(C(CC3CC3C(=O)N3CCC(c4ccccc4)C3)c3ccc(-c4c(-n5cnnn5)ccc(Cl)c4F)c[n+]3[O-])c2)cc1 (stereo not shown) [Example P175] | 365
NC(=O)c1ccc(-c2cnn(C(CCOC(F)F)c3ccc(-c4c(-n5cc(Cl)nn5)ccc(Cl)c4F)c[n+]3[O-])c2)cc1F (single isomer, unassigned) [Example P875] | 2.7
Cn1nncc1-c1cnn([C@H](CCOC(F)F)c2ccc(-c3c(-n4cc(C(F)(F)F)nn4)ccc(Cl)c3F)c[n+]2[O-])c1 [Example P761] | 41.6
Cn1cc(CC(c2ccc(-c3c(-n4cnnn4)ccc(Cl)c3F)c[n+]2[O-])n2cc(-c3ccnc(C(F)(F)F)c3)cn2)cn1 (stereo not shown) [Example P452] | 10.8
NC(=O)c1ccc(-c2cnn(C(Cc3ccn(C(F)F)n3)c3ccc(-c4c(-n5cc(C(F)(F)F)nn5)ccc(Cl)c4F)c[n+]3[O-])c2)cc1F (stereo not shown) [Example P952] | 2.3
N#Cc1cnn(CC(c2ccc(-c3c(-n4cc(C(F)(F)F)nn4)ccc(Cl)c3F)c[n+]2[O-])n2cc(-c3ccc(C(N)=O)c(F)c3)cn2)c1 (stereo not shown) [Example P955] | 613
COCc1ccn(CC(c2ccc(-c3c(-n4cnnn4)ccc(Cl)c3F)c[n+]2[O-])n2cc(-c3ccc(N)nc3F)cn2)n1 (stereo not shown) [Example P492] | 2.8
O=C(O)c1ccc(-c2cnn(C(Cc3ccc(-c4ccccc4)cc3)c3ccc(-c4cc(Cl)ccc4-n4cnnn4)c[n+]3[O-])c2)cc1 (stereo not shown) [Example P62] | 7.8
